Here are results for 5 molecules from article PMC6855259, “Acylation-coupled lipophilic induction of polarisation (Acyl-cLIP): a universal assay for lipid transferase and hydrolase enzymes” (Chemical Science, 2019).

Structures can show the parent of a compound that is named as a salt.

As a reminder, the inhibition is the relative decrease from the control value, in per cent. Low readings indicate little suppression, high ones strong suppression. As usually defined, the Kd is the concentration at which binding is half-saturated.

In one data set the test system is SHH-Light2 cells. Put plainly: Constitutive Renilla luciferase control for cellular viability in SHH-Light2 assay. The format is cell-based. Here is the method: (§1) SHH-Light2 Signalling Assay
(§2) HEK293a SHH+ cells (120,000 cells/well) were plated in a 12-well cell culture treated plate (Nunc) in DMEM/FBS (1 mL/well) and cultured for 24 h. Cells were washed with PBS, followed by the addition of DMEM/FBS (1 mL) containing DMSO (0.2%) or varying inhibitor concentrations in DMSO (0.041-30 µM). SHH-Light2 cells (20,000 cells/well) were plated in a 96-well plate in DMEM/FCS (50 µL/well). After 24 h, conditioned medium (300 µL) was removed from each well of the HEK293a SHH+ cells, centrifuged (1,000 g, 10 min), and added to three wells of SHH-Light2 cells (100 µL/well, 150 µL final volume). SHH-Light2 cells were cultured for a further 48 h, and washed with PBS prior to analysis. Firefly and Renilla luciferase activity was recorded using the Dual-Luciferase reporter system (Promega Corporation, USA).
(§3) Passive lysis buffer (20 µL) was added to each well and cells incubated for 30 min at RT. The lysate (5 µL) was transferred to a white opaque 96-well plate (Corning, 3362). Luciferase Assay Reagent II (20 µL/well) was added and the luminescence immediately recorded using a SpectraMax i3x spectrophotometer (Molecular Devices LLC). Stop&Glo (1x) substrate in Stop&Glo buffer (20 µL/well) was added and the luminescence immediately recorded. […]

The target in another data set is T1, HHAT (Homo sapiens, UniProt Q5VTY9).
T1 construct: FLAG (C); His (C); made in house; host or cells: HEK293a cells stably overexpressing HHAT-FLAG-His
Put plainly: Pilot HTS Acyl-cLIP screen of FDA-approved drugs, purified HHAT, stopped-assay conditions. It counts as biochemical. To be noted: compounds screened at 25 μM.

The subject of data set [1] is SHH acylation in HEK-293 SHH+ cells. Kind of data set: In-cell YnC15 tagging assay of SHH acylation. It counts as cell-based, human. The note with it: inhibitors 20 µM, YnC15, AzTB ligation; for inhibition of SHH acylation (YnC15 tagging) by in-gel fluorescence: IGF; for inhibition of SHH acylation assessed by increased molecular weight in anti-SHH blotting: α-SHH western blot. Here is the method:
In-Cell YnC15 Tagging Assay
HEK293a SHH+ cells (500,000 cells/well) were plated in a 6-well plate in DMEM/FBS (3 mL/well) and cultured for 24 h. Cells were treated with inhibitors in DMSO (20 µM), two RUSKI-201 (20 µM) blind-positive controls and two DMSO (7.5 µL) blind-negative controls.
After 1 h, YnC15 (3 µL, 20 mM in DMSO) was added and cells cultured for a further 6 h before washing with PBS. Cells were lysed in PBS with Triton X-100 (1%), SDS (0.1% (w/v)) and Complete EDTA-free protease inhibitor cocktail (Roche Diagnostics). Cells were removed from plates by scraping, and lysates centrifuged (13,000 g, 10 min, 4 °C). The protein concentration of the supernatant was estimated using the DC Protein Assay (Bio-Rad) and adjusted to 1 mg/mL with lysis buffer. AzTB (1 µL, 10 mM in DMSO), CuSO4 (2 µL, 50 mM in H2O), TCEP (2 µL, 50 mM in H2O) and TBTA (1 µL, 10 mM in DMSO) were combined, and this mixture (6 µL) added to the lysate (100 µL). Samples were shaken at RT for 1 h, then proteins precipitated by addition of methanol (200 µL), chloroform (50 µL) and water (100 µL) followed by centrifugation (13,000 g, 5 min, 4 °C). The upper aqueous layer was removed without disturbing the protein layer at the interphase, methanol (0.5 mL) was added, and the precipitated proteins isolated by centrifugation (13,000 g, 10 min, 4 °C). Protein pellets were […]
(§4) washed twice with methanol, briefly air-dried and re-dissolved in PBS containing SDS (0.2% (w/v)) and DTT (0.1 mM) using sonication to a final concentration of 1 mg/mL.
(§5) 10 µg of protein were separated on a 15% SDS-polyacrylamide gel. Fluorescence was recorded using a Typhoon imager (GE Healthcare; excitation laser: 532 nm, emission filter:
(§6) Proteins were transferred to a nitrocellulose membrane by wet transfer (100 V, 1 h), and membranes blocked with BSA (5% (w/v)) in TBS-T (50 mM TRIS, 150 mM NaCl, 0.1% Tween-20, pH 7.5) for 1 h at RT, followed by overnight incubation at 4°C with rabbit α-SHH (Santa Cruz Biotechnology; sc-9024; 1:200) in TBS-T with BSA (0.5% (w/v)) or mouse α-Tubulin (Santa Cruz Biotechnology; sc-8035; 1:200) in TBS-T with BSA (0.5% (w/v)). Membranes were washed with TBS-T (4 × 5 min) and incubated at RT for 1 h with HRP-conjugated Goat-α-mouse IgG (Advansta; 1:10,000) in TBS-T with BSA (0.5% (w/v)) or Goat-α-rabbit IgG (Advansta; 1:10,000) in TBS-T with BSA (0.5% (w/v)). Membranes were washed with TBS-T (4 × 5 min) and developed with Luminata Crescendo Western HRP substrate (Millipore) on a Fujifilm LAS-3000 imager. YnC15-labelled SHH band intensities were quantified using ImageJ 1.50i (National Institute of Health, USA).
HEK293a SHH+ cells (5,000 cells/well) were plated in a 96-well plate in DMEM/FBS […]
(50 µL/well) and cultured for 24 h. […]
Background: Immunoblotting shows a protein as a band on a membrane.

The next data set has as its system HEK-293 SHH+ cells. Put plainly: MTS viability assay. It counts as cell-based, human. To be noted: 72 h, inhibitors 0.14-100 µM. The method, then: as §4, §5
as §6, with “Membranes were washed with TBS-T (4 × 5 min) and developed with Luminata Crescendo Western HRP substrate (Millipore) on a Fujifilm LAS-3000 imager.” left out
HEK293a SHH+ cells (5,000 cells/well) were plated in a 96-well plate in DMEM/FBS (50 µL/well) and cultured for 24 h. […] The absorption at 490 nm was recorded using an EnVision Xcite 2104 and responses normalised to vehicle control and background corrected to Puromycin-treated samples.

For data set [2], the system named is HH signalling in SHH-Light2 cells. Put plainly: SHH-Light2 signalling assay (Firefly luciferase). The note with it: inhibitors 0.041-30 µM. It counts as cell-based. Here is the method: as §1, §2, §3
Data set [3] is described as follows: Detergent/BSA titration for polarised emission of Pal-SHH-FAM (fluorescence anisotropy). The note with it: titration with Pal-SHH-FAM; read-out: detergent concentration required for half-maximal polarised signal (EC50).
Procedure: Fluorescence measurements were recorded on an EnVision Xcite 2104 (PerkinElmer).
FAM-labelled peptides were measured using a FITC FP D505fp mirror module, FITC FP 480 nm excitation filter (30 nm bandwidth), FITC FP P-pol 535 nm first emission filter (40 nm bandwidth), and FITC FP S-pol 535 nm second emission filter (40 nm bandwidth). Continuous reaction monitoring was conducted using measurement height = 9.52 mm, 8 flashes/well, PMT gain = 319, and G-factor = 1.09.
TAMRA-labelled peptides were measured using a BODIPY TMR FP D555fp mirror module, BODIPY TMR FP 531 nm excitation filter (25 nm bandwidth), BODIPY TMR FP P-pol 579 nm first emission filter (25 nm bandwidth), and BODIPY TMR FP S-pol 579 nm second emission filter (25 nm bandwidth). Continuous reaction monitoring was conducted using measurement height = 6.5 mm, 200 flashes/well, PMT gain = 255, and G-factor = 1.6.
Detergents (2 mM) or BSA (0.15 mM) were tested for generation of polarised fluorescence from Pal-SHH-FAM or SHH-FAM (0.1 µM) in 100 mM MES, 20 mM NaCl. Detergent and BSA titrations were performed using 2-fold serial dilutions.
For data set [4] the following is noted: cited from earlier work.
The target in a further data set is BSA. Details: method as in PMID 11964183. To be noted: read-out: Kd of BSA for palmitic acid; cited from earlier work.

T1 sequence (Q5VTY9 whole entry): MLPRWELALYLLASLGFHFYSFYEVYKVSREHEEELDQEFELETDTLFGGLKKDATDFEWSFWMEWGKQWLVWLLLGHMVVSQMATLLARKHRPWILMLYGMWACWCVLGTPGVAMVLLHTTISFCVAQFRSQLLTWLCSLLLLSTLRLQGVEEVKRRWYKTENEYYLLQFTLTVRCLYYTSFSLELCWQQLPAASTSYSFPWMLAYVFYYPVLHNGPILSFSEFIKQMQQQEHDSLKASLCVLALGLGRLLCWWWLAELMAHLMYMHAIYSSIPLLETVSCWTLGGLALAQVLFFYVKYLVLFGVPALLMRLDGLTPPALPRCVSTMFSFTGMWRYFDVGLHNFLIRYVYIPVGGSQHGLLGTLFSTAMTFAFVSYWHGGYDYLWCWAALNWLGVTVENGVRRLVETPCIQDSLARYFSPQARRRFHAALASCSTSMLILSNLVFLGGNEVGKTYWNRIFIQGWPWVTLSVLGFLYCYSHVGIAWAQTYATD

In the case of `CC(C)C[C@H]1C(=O)N2CCC[C@H]2[C@]2(O)O[C@](NC(=O)[C@@H]3C=C4c5cccc6[nH]c(Br)c(c56)C[C@H]4N(C)C3)(C(C)C)C(=O)N12` [Bromocriptine Mesylate], the “cytotoxicity in SHH-Light2 signalling assay” value with SHH-Light2 cells is “general cytotoxicity”. Moreover, on HHAT, the inhibition at 25 µM is more than 80%. For the same molecule, the “inhibition of SHH acylation (YnC15 tagging) by in-gel fluorescence” value in data set [1] (listed as Bromocriptine) is “inhibition”; in data set [1] (listed as bromocriptine) it was “showed inhibition of SHH acylation”. The “inhibition of SHH acylation assessed by increased molecular weight in anti-SHH blotting” value in data set [1] is “did not show inhibition of SHH acylation”.

For `CN(C)CCCN1c2ccccc2CCc2ccc(Cl)cc21` [Clomipramine·HCl], the figures for the “viability in MTS assay” value with HEK-293 SHH+ cells (listed as Clomipramine) and in the data set with HEK-293 SHH+ cells (listed as clomipramine) were “cytotoxicity” and “decreased viability at high concentrations”, respectively. The “concentration at which HH signalling is inhibited” value in data set [2] (listed as Clomipramine) is 30 µM; in data set [2] (listed as clomipramine), more than 30 µM. The “inhibition of SHH acylation (YnC15 tagging) by in-gel fluorescence” value was “inhibition” in data set [1] (listed as Clomipramine) and “showed inhibition of SHH acylation” in data set [1] (listed as clomipramine). In data set [1], the “inhibition of SHH acylation assessed by increased molecular weight in anti-SHH blotting” value is “did not show inhibition of SHH acylation”.

As for `CCCCCCCCCCCCO[C@@H]1O[C@H](CO)[C@@H](O[C@H]2O[C@H](CO)[C@@H](O)[C@H](O)[C@H]2O)[C@H](O)[C@H]1O` [DDM, n-dodecyl β-D-maltoside], in data set [3], the EC50 amounted to 150 µM. In addition, the “critical micelle concentration (CMC)” value in data set [4] is 170 µM.

With `CCCCCCCCCCCCCCCC(=O)O` [palmitic acid], on BSA, the Kd is 0.104 µM.

As to Triton™ X-100 [TX-100], the EC50 in data set [3] came out at 180 µM. The “critical micelle concentration (CMC)” value in data set [4] was 200 µM.
